Patent EP0465323A1, “Pyrimidin derivatives, angiotensin II receptor antagonists, their process of preparation and pharmaceutical compositions containing them” (LABORATOIRES UPSA, priority 1990, dated 1992)

Tested on: récepteurs surrénaliens de l'angiotensine II
Assay: Displacement of radioligand [125I]-SIAII specifically bound to rat adrenal angiotensin II receptors
Assay type: binding
Details: rat adrenal homogenate, 60 min at 25°C
Source text: L'affinité des produits des exemples pour les récepteurs de l'angiotensine Il est évaluée par technique de déplacement d'un radioligand spécifiquement fixé sur les récepteurs surrénaliens de l'angiotensine II, chez le rat.
Une aliquote d'un homogénat de surrénales de rat incube en présence d'une concentration unique de [^125| ] - SIAII (Sar^1, Tyr^4, lle^8- angiotensine II), antagoniste des récepteurs de l'angiotensine II, et de deux concentrations d'agents compétiteurs (10^-5 M, 10-^7 M), durant 60 min à 25°C.
La réaction est achevée par ajout de tampon, puis rapide filtration à travers des filtres de papier de verre. La liaison non spécifique est déterminée en présence d'angiotensine II.
Les résultats sont exprimés, pour les concentrations testées, en pourcentage de déplacement du radioligand spécifiquement fixé sur les récepteurs surrénaliens de l'angiotensine II.

| SMILES | % de déplacement du ligand marqué (competitor 1E-5M, 10 µM) [%] | % de déplacement du ligand marqué (competitor 1E-7M, 0.1 µM) [%] |
| --- | --- | --- |
| CCCc1nc(C)n(CC(=O)OCC)c(=O)c1Cc1ccc(NC(=O)c2ccccc2S(=O)(=O)O)cc1 [Exemple 13] | 96 | 64 |
| CCCc1nc(C)n(CC(=O)O)c(=O)c1Cc1ccc(NC(=O)c2c(Cl)ccc(Cl)c2C(=O)O)cc1 [Exemple 14, Acide [n-propyl-4 méthyl-2 oxo-6 [(carboxy-2 dichloro-3,6-phényl)carbonylamino-4 phénylméthyl]-5 pyrimidine-yl-1 (6H)-] acétique] | 81 | 38 |
| CCCc1nc(C)nc(OCCO)c1Cc1ccc(-c2ccccc2C(=O)O)cc1 [Exemple 16, Acide [n-propyl-6 méthyl-2 hydroxy éthyloxy-4 pyrimidine-yl-5] méthyl-4' biphényl-2 carboxylique] | 65 | 31 |
| CCCc1nc(C)nc(SCC(=O)OCC)c1Cc1ccc(NC(=O)c2ccccc2S(=O)(=O)O)cc1 [Exemple 24, Acide [[n-Propyl-6 méthyl-2 (éthoxycarbonyl méthyl mercapto)-4 pyrimidine-yl-5]méthylphényl-yl-4] amino carbonyl-2 benzène sulfonique] | 93 | 62 |
| CCCc1nc(C)nc(OC(=O)N(C)C)c1Cc1ccc(NC(=O)c2ccccc2S(=O)(=O)O)cc1 [Exemple 27, Acide [[n-propyl-6 méthyl-2 (N,N-diméthyl amino carbonyloxy)-4 pyrimidine-yl-5]méthylphényl-yl-4] amino carbonyl-2 benzène sulfonique] | 76 | 20 |
| CCCc1nc(C)nc(OC)c1Cc1ccc(-c2ccccc2-c2nn[nH]n2)cc1 [Exemple 31, n-Propyl-6 méthy1-2 méthoxy-4 [(tétrazol-yl-5)-2' biphényl-yl-4] méthyl-5 pyrimidine] | 71 | 51 |
| CCCc1nc(C)n(CC(=O)OCC)c(=O)c1Cc1ccc(-c2ccccc2-c2nn[nH]n2)cc1 [Exemple 32, [n-Propyl-4 méthyl-2 oxo-6 [(tétrazol-yl-5)-2' biphényl-yl-4]méthyl-5 pyrimidine-yl-1 (6H)-] acétate d'éthyle] | 94 | 67 |
| CCCc1nc(C)nc(SCC(=O)OCC)c1Cc1ccc(-c2ccccc2-c2nn[nH]n2)cc1 [Exemple 33, [n-Propyl-6 méthyl-2 [(tétrazol-yl-5)-2' biphényl-yl-4]méthyl-5 pyrimidine-yl-4] mercapto acétate d'éthyle] | 69 | 62 |
| CCCc1nc(C)nc(SCCO)c1Cc1ccc(NC(=O)c2ccccc2S(=O)(=O)O)cc1 [Exemple 54, Acide [(n-Propyl-6 méthyl-2 hydroxyéthylmercapto-4 pyrimidine-yl-5)methylphenyl-yl-4] amino carbonyl-2 benzène sulfonique] | 84 | 65 |
| CCCCc1nc(C)nc(SCCO)c1Cc1ccc(NC(=O)c2ccccc2S(=O)(=O)O)cc1 [Exemple 55, Acide [(n-butyl-6 méthyl-2 hydroxyéthylmercapto-4 pyrimidine-yl-5)méthylphényl-yl-4] amino carbonyl-2 benzène sulfonique] | 86 | 60 |
| CCCc1nc(C)nc(N2CCOCC2)c1Cc1ccc(NC(=O)c2ccccc2S(=O)(=O)O)cc1 [Exemple 56, Acide [[n-Propyl-6 méthyl-2 (morpholine-yl-1)-4 pyrimidine-yl-5]méthylphényl-yl-4] amino carbonyl-2 benzène sulfonique] | 86 | 59 |
| CCCCc1nc(C)nc(N)c1Cc1ccc(NC(=O)c2ccccc2S(=O)(=O)O)cc1 [Exemple 57, Acide [(n-Butyl-6 méthyl-2 amino-4 pyrimidine-yl-5)méthylphényl-yl-4] amino carbonyl-2 benzène sulfonique] | 80 | 69 |
| CCCc1nc(C)nc(N2CCN(c3ccccc3OC)CC2)c1Cc1ccc(NC(=O)c2ccccc2S(=O)(=O)O)cc1 [Exemple 58, Acide [[n-Propyl-6 méthyl-2 ((méthoxy-2 phényl)pipérazine-yl-4)-4 pyrimidine-yl-5]méthylphényl-yl-4] amino carbonyl-2 benzène sulfonique] | 78 | 53 |
| CCCc1nc(C)nc(SC)c1Cc1ccc(NC(=O)c2ccccc2S(=O)(=O)O)cc1 [Exemple 59, Acide [[n-Propyl-6 méthyl-2 méthylthio-4 pyrimidine-yl-5]méthylphényl-yl-4] amino carbonyl-2 benzène sulfonique] | 89 | 57 |
| CCCCc1nc(C)nc(SCC(=O)OCC)c1Cc1ccc(NC(=O)c2ccccc2S(=O)(=O)O)cc1 [Exemple 61, Acide [[n-Butyl-6 Méthyl-2 (éthoxycarbonyl méthyl thio)-4 pyrimidine-yl-5]méthylphényl-yl-4] amino carbonyl-2 benzène sulfonique] | 96 | 63 |
| CCCCc1nc(-c2ccccc2)nc(SCC(=O)OCC)c1Cc1ccc(NC(=O)c2ccccc2S(=O)(=O)O)cc1 [Exemple 75, Acide [[n-butyl-6 phényl-2 (éthoxy carbonyl méthyl thio)-4 pyrimidine-yl-5]méthylphényl-yl-4] amino carbonyl-2 benzène sulfonique] | 72 | 0 |
| CCCCc1nc(C(C)C)nc(SCC(=O)OCC)c1Cc1ccc(NC(=O)c2ccccc2S(=O)(=O)O)cc1 [Exemple 76, Acide [[n-butyl-6 isopropyl-2 (éthoxy carbonyl méthyl thio)-4 pyrimidine-yl-5]méthylphényl-yl-4] amino carbonyl-2 benzène sulfonique] | 93 | 37 |
| CCCCc1nc(-c2ccccc2)nc(SCCO)c1Cc1ccc(NC(=O)c2ccccc2S(=O)(=O)O)cc1 [Exemple 77, Acide [[n-butyl-6 phényl-2 (hydroxy éthyl thio)-4 pyrimidine-yl-5]méthylphényl-yl-4] amino carbonyl-2 benzène sulfonique] | 63 | 4 |
| CCCCc1nc(C(C)C)nc(SCCO)c1Cc1ccc(NC(=O)c2ccccc2S(=O)(=O)O)cc1 [Exemple 78, Acide [[n-butyl-6 isopropyl-2 (hydroxy éthyl thio)-4 pyrimidine-yl-5]méthylphényl-yl-4] amino carbonyl-2 benzène sulfonique] | 74 | 41 |
